Experimental data reported in patent US20040024024A1, “Aromatic sulfone hydroxamates and their use as protease inhibitors” (priority 2001, published 2004).
Values joined by “and” are separate entries in the source; they are usually repeats but may differ in a detail not shown here. Equal entries are not always repeated. Structures can show the parent of a compound that is named as a salt.

Key:
Assay type in all cases: biochemical
Human recombinant MMP-13 = biological target: T1, Human recombinant MMP-13 (Homo sapiens, UniProt P45452); experiment: In vitro MMP inhibition, IC50 determination (fluorogenic substrate I)
T1 construct: made in house; host or cells: baculovirus / insect cells
Outline: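 Fluorescence at 415 nm (excitation 328 nm) reports Gly-Leu cleavage of 4 μM quenched methoxycoumarin peptide substrate I. Human recombinant MMP-13, activated by trypsin or APMA, was incubated at room temperature with varied inhibitor concentrations in pH 7.5 Tris/NaCl/CaCl2 buffer; IC50 derived from reduced fluorescence.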

Human recombinant MMP-2 = biological target: T2, Human recombinant MMP-2 (Homo sapiens, UniProt P08253); experiment: In vitro MMP inhibition, Ki determination (fluorogenic substrate II)
T2 construct: made in house; host or cells: MMP-2-transfected p2AHT2 cells
T2 sequence (P08253 110-660): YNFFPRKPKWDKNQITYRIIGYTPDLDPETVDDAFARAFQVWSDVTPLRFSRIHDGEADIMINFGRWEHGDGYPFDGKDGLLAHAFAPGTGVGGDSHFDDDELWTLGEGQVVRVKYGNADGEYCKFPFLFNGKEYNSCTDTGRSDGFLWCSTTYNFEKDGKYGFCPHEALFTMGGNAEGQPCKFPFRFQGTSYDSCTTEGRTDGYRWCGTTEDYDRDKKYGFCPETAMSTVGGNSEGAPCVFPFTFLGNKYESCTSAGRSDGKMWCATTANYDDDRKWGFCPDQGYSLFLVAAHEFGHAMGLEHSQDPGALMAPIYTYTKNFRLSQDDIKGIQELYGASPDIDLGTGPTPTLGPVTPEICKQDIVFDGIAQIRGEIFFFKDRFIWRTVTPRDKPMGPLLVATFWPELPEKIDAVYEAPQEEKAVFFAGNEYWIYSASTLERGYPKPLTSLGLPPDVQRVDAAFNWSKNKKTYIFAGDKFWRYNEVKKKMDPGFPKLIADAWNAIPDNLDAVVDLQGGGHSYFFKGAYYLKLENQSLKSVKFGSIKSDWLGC
Procedure: Several hydroxamates and salts thereof were analyzed in in vitro assays to determine their ability to inhibit the MMP cleavage of peptide substrates. Inhibition (Ki) and IC50 constants were calculated from the assayed hydroxamate-MMP interactions.
Human recombinant MMP-1, MMP-2, MMP-9, MMP-13, and MMP-14 were used in this assay. All enzymes were prepared in Assignee's laboratories following usual laboratory procedures. Protocols for the preparation and use of these enzymes are available in the scientific literature. See, e.g., Enzyme Nomenclature (Academic Press, San Diego, Calif., 1992) (and the citations therein). See also, Frije et al., J. Biol. Chem., 26(24), 16766-73 (1994).
The MMP-2 proenzyme was purified by gelatin Sepharose chromatography from MMP-2-transfected p2AHT2 cells provided by Dr. Gregory Goldberg of Washington University (St. Louis, Mo.).
All MMPs were activated using 4-aminophenylmercuric acetate (“APMA”, Sigma Chemical, St. Louis, Mo.) or trypsin. MMP-9 also was activated using human recombinant MMP-3 (purified in Assignee's laboratory following standard cloning and purification techniques).
Two fluorogenic, methoxycoumarin-containing polypeptide substrates were used in the MMP inhibition assays:
MCA-ArgProLeuGlyLeuDpaAlaArgGluArgNH2 (II)
Here, “Dpa” is 3-(2,4-dinitrophenyl)-L-2,3-diaminopropionyl group, and “MCA” is 7-methoxycoumarin-4-yl acetyl. Substrate (I) was purchased from Baychem (Redwood City, Calif.), and substrate II was prepared Assignee's laboratory. Substrate I was used in the IC50 determination assays, while substrate II was used in the Ki determination assays. In the absence of MMP inhibitory activity, either substrate is cleaved at the Gly-Leu peptide bond. This cleavage separates the highly fluorogenic peptide from the 2,4-dinitrophenyl quencher, thus resulting in increase of fluorescent intensity.
The stock solutions of the assayed hydroxamates (or salts thereof) were prepared in 1% dimethyl sulfoxide (DMSO). These stock solutions were diluted in Buffer A (100 mM Tris-HCl, 100 mM NaCl, 10 mM CaCl2, 0.05% polyoxyethylene 23 lauryl ether, pH 7.5) to obtain solutions with different hydroxamate concentrations, i.e., assay solutions with different concentrations of the assayed MMP inhibitory compound. The experiment controls contained the same amount of Buffer A/DMSO as the assayed sample, but contained no hydroxamate (or salt thereof).
The assays from which the Ki determinations were made were performed as follows. The assayed hydroxamate samples were incubated in separate wells of untreated white polystyrene plates (Nunc Nalgene International, Rochester, N.Y.), and analyzed on a Tecan SpectraFlour Plus plate reader. The excitation wavelength was 330 nm, and the emission wavelength—420 nm. All samples (assayed hydroxamates and controls) were incubated in separate plate wells at room temperature for 1 hr in the presence of 4 μM of MMP substrate (II). In the absence of MMP inhibitory activity, substrate II was cleaved at the Gly-Leu bond resulting in an increase of relative fluorescence. Inhibition was observed as a reduced rate of this increase in relative fluorescence. The various hydroxamates were analyzed using a single low enzyme concentration with a single substrate concentration fixed at or below the Km. This protocol is a modification of method by Knight et al., FEBS Lett., 296(3), 263-266 (1992). Apparent inhibitory constants were determined by non-linear regression of reaction velocity as a function of inhibitor and enzyme concentration using Morrison's equation, as described by Kuzmic, Anal. Biochem. 286, 45-50 (2000). […] Since the substrate concentration was chosen to be at or below the Km, the apparent Ki's from this analysis were reported as Ki's without correction for the influence of substrate.

Human recombinant MMP-9 = biological target: T3, Human recombinant MMP-9 (Homo sapiens, UniProt P14780); experiment: In vitro MMP inhibition, IC50 determination (fluorogenic substrate I); settings: value outside parentheses
T3 construct: made in house; host or cells: MMP-9-transfected HT1080 cells (spent media)
Outline: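 Reduction in fluorescence (328 nm excitation, 415 nm emission) from cleavage of 4 μM quenched peptide substrate I, measured at room temperature against inhibitor concentration, gave IC50. Enzyme: trypsin- or APMA-activated MMP-9 purified from transfected HT1080 medium; buffer 100 mM Tris, 100 mM NaCl, 10 mM CaCl2, pH 7.5.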

[1] = substrate (I) 4 μM, room temperature, values not in parenthesis
[2] = substrate (II) 4 μM, 1 hr room temperature, apparent Ki, values in parenthesis

T3 sequence (P14780 107-707 limits assumed): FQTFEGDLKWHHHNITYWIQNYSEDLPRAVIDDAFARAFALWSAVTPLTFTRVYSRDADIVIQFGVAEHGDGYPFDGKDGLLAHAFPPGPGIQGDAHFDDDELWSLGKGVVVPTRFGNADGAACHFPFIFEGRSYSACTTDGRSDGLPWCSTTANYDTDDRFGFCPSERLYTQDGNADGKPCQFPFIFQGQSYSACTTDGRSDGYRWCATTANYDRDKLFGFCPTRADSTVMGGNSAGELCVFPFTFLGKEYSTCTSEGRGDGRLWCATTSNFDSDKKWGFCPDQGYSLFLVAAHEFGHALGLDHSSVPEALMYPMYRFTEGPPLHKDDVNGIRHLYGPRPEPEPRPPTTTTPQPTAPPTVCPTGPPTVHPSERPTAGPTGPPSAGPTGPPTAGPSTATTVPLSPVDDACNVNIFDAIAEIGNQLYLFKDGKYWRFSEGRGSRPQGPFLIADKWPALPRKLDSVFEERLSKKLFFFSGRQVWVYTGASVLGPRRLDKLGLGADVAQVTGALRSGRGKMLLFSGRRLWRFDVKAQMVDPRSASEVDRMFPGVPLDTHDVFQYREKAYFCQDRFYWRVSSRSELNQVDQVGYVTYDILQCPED

Row | Structure (SMILES) | IC50 (Human recombinant MMP-13; value outside parenthesis) [nM] | Ki (Human recombinant MMP-2; value in parenthesis) [nM] | IC50 (Human recombinant MMP-13; value outside parentheses) [nM] | Ki (Human recombinant MMP-2; value in parentheses) [nM] | also measured
1 | O=C(NO)C1(S(=O)(=O)c2ccc(OCCCc3cccc(-c4ccc(F)cc4)c3)cc2)CCOCC1 [Example 39] |  |  |  |  | IC50 (Human recombinant MMP-13; [1]): 0.9 nM; Ki (Human recombinant MMP-2; [2]): 1640 nM
2 | COCCN1CCC(C(=O)NO)(S(=O)(=O)c2ccc(OCCCc3cc(-c4ccc(F)cc4F)cs3)cc2)CC1 [Example 47, 4-[(4-{3-[4-(2,4-difluorophenyl)thien-2-l]propoxy}phenyl)sulfonyl]-N-hydroxy-1-(2-methoxyethyl)piperidine-4-carboxamide Hydrochloride] |  |  |  |  | IC50 (Human recombinant MMP-13; [1]): 0.2 nM; Ki (Human recombinant MMP-2; [2]): 19.2 nM and 46.5 nM
3 | NC(=O)c1cccc(OCCOc2ccc(S(=O)(=O)C3(C(=O)NO)CCOCC3)cc2)c1 [Example 54] |  |  |  |  | IC50 (Human recombinant MMP-13; [1]): 10.5 nM; Ki (Human recombinant MMP-2; [2]): 64.8 nM
4 | O=C(NO)C1(S(=O)(=O)c2ccc(OCCCc3cccc(-c4ccco4)c3)cc2)CCOCC1 [Example 97] | 3.3 | 295 |  |  | 
5 | O=C1Nc2ccc(-c3noc(CCCOc4ccc(S(=O)(=O)C5(C(=O)NO)CCN(C6CC6)CC5)cc4)n3)cc21 [Example 142] | 7.5 | 96.4 |  |  | 
6 | O=C(NO)C1(S(=O)(=O)c2ccc(OCCCc3cccc(-c4ccc(OC(F)(F)F)cc4)c3)cc2)CCOCC1 [Example 147] | 28.3 | > 10000 |  |  | 
7 | O=C(NO)C1(S(=O)(=O)c2ccc(OCCCc3cccc(-c4ccccn4)c3)cc2)CCOCC1 [Example 148] | 3.1 | 213 |  |  | 
8 | O=C(NO)C1(S(=O)(=O)c2ccc(OCCCc3cccc(-c4ccncc4)c3)cc2)CCOCC1 [Example 149] | 1.3 | 84.1 |  |  | 
9 | CC(C)c1ccc(-c2cccc(CCCOc3ccc(S(=O)(=O)C4(C(=O)NO)CCOCC4)cc3)c2)cc1 [Example 160] | 505 | > 10000 |  |  | 
10 | O=C(NO)C1(S(=O)(=O)c2ccc(OCCCc3cccc(-c4ccccc4Cl)c3)cc2)CCOCC1 [Example 162] | 15.6 | 2370 |  |  | 
11 | Cc1ccccc1-c1cccc(CCCOc2ccc(S(=O)(=O)C3(C(=O)NO)CCOCC3)cc2)c1 [Example 164] | 20 | 978 |  |  | 
12 | Cc1ccc(-c2cccc(CCCOc3ccc(S(=O)(=O)C4(C(=O)NO)CCOCC4)cc3)c2)cc1C [Example 165] | 147 | > 10000 |  |  | 
13 | O=C(NO)C1(S(=O)(=O)c2ccc(OCCCc3cncc(Br)c3)cc2)CCOCC1 [Example 522] |  |  | 0.3 | 32.1 | 
14 | O=C(COc1ccc(S(=O)(=O)C2(C(=O)NO)CCOCC2)cc1)c1cccc(-c2ccccc2)c1 [Example 563] |  |  | 1.1 | 70.1 | 
15 | O=C(CCCOc1ccc(S(=O)(=O)C2(C(=O)NO)CCOCC2)cc1)Nc1cccc(I)c1 [Example 570] |  |  | 0.2 | 10.1 | 
16 | O=C(NO)C1(S(=O)(=O)c2ccc(OCCCc3cccc(-n4ccnc4)c3)cc2)CCOCC1 [Example 574] |  |  | 0.7 | 112 | 
17 | O=C(NO)C1(S(=O)(=O)c2ccc(OCCCc3nc(-c4cccnc4)no3)cc2)CCOCC1 [Example 578] |  |  | 2.9 | 72.1 | 
18 | O=C(NO)C1(S(=O)(=O)c2ccc(OCCCc3nc(-c4ccccc4)no3)cc2)CCOCC1 [Example 584] |  |  | 3.6 | 20.8 | 
19 | CCN1CCC(C(=O)NO)(S(=O)(=O)c2ccc(OCCCSc3nc4ccccc4s3)cc2)CC1 [Example 591] |  |  | 0.3 |  | IC50 (Human recombinant MMP-9): 12 nM
20 | O=C(NO)C1(S(=O)(=O)c2ccc(OCCCc3cccc(-c4ccc(C(F)(F)F)cc4)c3)cc2)CCOCC1 [Example 625] |  |  | 33.6 | 6860 | 
21 | O=C(NO)C1(S(=O)(=O)c2ccc(OCCCc3cccc(-c4ccc5c(c4)OCCO5)c3)cc2)CCOCC1 [Example 627] |  |  | 14.9 | 3950 | 
22 | O=C(NO)C1(S(=O)(=O)c2ccc(OCCCc3cccc(-c4ccc5ccccc5c4)c3)cc2)CCOCC1 [Example 629] |  |  | 78.6 | 1020 | 
23 | O=C(NO)C1(S(=O)(=O)c2ccc(OCCCc3cccc(-c4csc5ccccc45)c3)cc2)CCOCC1 [Example 631] |  |  | 118 | 4960 | 
24 | O=C(NO)C1(S(=O)(=O)c2ccc(OCCCc3cccc(-c4cc5ccccc5s4)c3)cc2)CCOCC1 [Example 633] |  |  | 117 | 4580 | 
25 | O=C(NO)C1(S(=O)(=O)c2ccc(OCCCc3cccc(-c4coc5ccccc45)c3)cc2)CCOCC1 [Example 634] |  |  | 16.3 | 983 | 
26 | C=Cc1ccc(-c2cccc(CCCOc3ccc(S(=O)(=O)C4(C(=O)NO)CCOCC4)cc3)c2)cc1 [Example 635] |  |  | 20 | 4680 | 
27 | O=C(NO)C1(S(=O)(=O)c2ccc(OCCCc3cccc(-c4ccccc4O)c3)cc2)CCOCC1 [Example 636] |  |  | 3.2 | 527 | 
28 | O=C(NO)C1(S(=O)(=O)c2ccc(OCCCc3cccc(-c4cccc5ccccc45)c3)cc2)CCOCC1 [Example 638] |  |  | 400 | 8120 | 
29 | Cc1ccc(-c2cccc(CCCOc3ccc(S(=O)(=O)C4(C(=O)NO)CCOCC4)cc3)c2)s1 [Example 639] |  |  | 4.3 | 505 | 
